Patent publication US20070060629A1, “Large conductance calcium-activated k channel opener” (priority 2003, published 2007)

test system: anesthetized rats; assay: Inhibitory effect on the rhythmic bladder contractions induced by substance P in anesthetized rats; type: in vivo, rat; settings: time during which frequency of rhythmic bladder contraction was completely inhibited; 0.25 mg/kg of compound, intravenous; substance P-infused anesthetized rats
Experimental: Inhibitory Effect on the Rhythmic Bladder Contractions Induced by Substance P in Anesthetized Rats
For the experiments, Sprague-Dawley female rats (9 to 12 weeks old) weighing between 200 to 300 g were used. After urethane anesthetization (subcutaneously administered with a dose of 1.2 g/kg), cannulae were placed in both right and left femoral veins. One intravenous catheter was used for administration of compounds, and the other was for the substance P (0.33 μg/kg/min) infusion. We also cannulated into ureter to pass urine. Polyethylene catheters were inserted into carotid artery for continuous monitoring of arterial blood pressure and heart rate. For continuous infusion, transurethral bladder catheter was inserted into the bladder through the urethra and tied in place by a ligature around the urethral orifice. One end of the catheter was attached to a pressure transducer in order to measure intravesical pressure. The other end of the catheter was used for infusion of saline into the bladder. After stabilization of blood pressure and heart rate and after the bladder was emptied, cystometry was performed by filling the bladder slowly with about 0.6 ml of saline. After about 10 minutes, intravenous infusion of substance P (0.33 μg/kg/min) was started for stabilization of the micturition reflex. Compounds were administered after stable rhythmic bladder contraction was obtained over 15 minutes. All compounds were dissolved or suspended in saline containing 0.5% Tween 80 for intravenous administration (0.1 ml/kg).
Also, pre-administration of iberiotoxin, a selective large conductance calcium-activated K channel blocker (0.15 mg/kg, intravenous administration) reduced inhibitory effect of the compounds of the present invention on the rhythmic bladder contraction.

Compound	100% inhibiting time
COC(=O)NCCNS(=O)(=O)c1ccc(-n2nc(C(F)(F)F)cc2-c2ccc(C)cc2)cc1 [Example 59, methyl {2-[({4-[5-(4-methylphenyl)-3-(trifluoromethyl)-1H-pyrazol-1-yl]phenyl}sulfonyl)amino]-ethyl}carbamate]	5.7 min
Cc1onc(-c2ccccc2)c1-c1ccc(C(=O)N[C@@H](C)CO)cc1 [Example 135, N-[(1S)-2-hydroxy-1-methylethyl]-4-(5-methyl-3-phenylisoxazol-4-yl)benzamide]	17.8 min
Cc1onc(-c2ccccc2)c1-c1ccc(S(=O)(=O)NO)cc1 [Example 171]	12.8 min
Cc1onc(-c2cccnc2)c1-c1ccc(C(=O)NCCO)cc1 [Example 207]	13.9 min

test system: isolated rabbit urinary bladder; assay: Relaxation effect on potassium-induced contraction of isolated rabbit urinary bladder; type: cell-based; settings: Oryctolagus cuniculus; isolated rabbit urinary bladder strips pre-contracted with high-K+ (30 mM); relaxation relative to 10^-4 M papaverine as 100%; rank A, B or C; read-out: IC50 value (50% relaxation concentration)
Experimental: Relaxation Effect on Potassium-Induced Contraction of Isolated Rabbit Urinary Bladder
Urinary bladder was isolated from Male NZW rabbits (body weight: 2.0-3.5 kg) and immersed in ice-cold Krebs-bicarbonate solution (in mM: 118 NaCl, 4.7 KCl, 2.55 CaCl2, 1.18 MgSO4, 1.18 KH2PO4, 24.88 NaHCO3 and 11.1 glucose). The urinary bladder was cut into longitudinal strips (5 mm length, 3-4 mm width) after mucosal layer was removed.
Preparations were mounted in organ baths containing 10 ml of Krebs solution maintained at 37° C. and gassed with 95% O2/5% CO2. Accordingly, preparations were stretched with an initial tension of 2.0±1.0 g, and changes in isometric tension were measured by force-displacement transducer. The preparations were pre-contracted by changing organ-bath solution into high-K^+ (30 mM) Krebs solution (in mM: 118 NaCl, […], 2.55 CaCl2, 1.18 MgSO4, 1.18 KH2PO4, 24.88 NaHCO3 and 11.1 glucose).
After stable tension was obtained, compounds were added into organ baths cumulatively (10^−8 M-10^−4 M). The effects of compounds were expressed as a percentage of the maximum relaxation produced by 1O^−4 M papaverine as 100%. 50% relaxation concentration (IC50) was calculated and IC50 value range (μM) of compounds of the present invention was shown in the following Table 68 with a rank of A, B or C. These ranges are as mentioned below. 3 μM≧C>1 μM≧B>0.5 μM≧A

IC50	Compound
1 to 3 µM	COCCNS(=O)(=O)c1ccc(-n2nc(C(F)(F)F)cc2-c2ccc(C)cc2)cc1 [Example 30]
1 to 3 µM	Cc1cccc(-n2nc(C(F)(F)F)cc2-c2ccc(C)c(S(N)(=O)=O)c2)c1 [Example 45]
1 to 3 µM	Cc1ccc(-c2cc(C(F)(F)F)nn2-c2ccccc2)cc1S(=O)(=O)NCCO [Example 46]
1 to 3 µM	Cc1ccc(-c2cc(C(F)(F)F)nn2-c2ccc(C(=O)NCCO)cc2)cc1 [Example 51]
1 to 3 µM	COC(=O)NCCNS(=O)(=O)c1ccc(-n2nc(C(F)(F)F)cc2-c2ccc(C)cc2)cc1 [Example 59, methyl {2-[({4-[5-(4-methylphenyl)-3-(trifluoromethyl)-1H-pyrazol-1-yl]phenyl}sulfonyl)amino]-ethyl}carbamate]
< 0.5 µM	Cc1onc(-c2ccc(N(C)C)cc2)c1-c1ccc(S(N)(=O)=O)cc1 [Example 115]
0.5 to 1 µM	Cc1onc(-c2ccccc2)c1-c1ccc(OCCO)cc1 [Example 152, 2-[4-(5-methyl-3-phenylisoxazol-4-yl)phenoxy]ethanol]
1 to 3 µM	Cc1onc(-c2ccccc2)c1-c1ccc(C(N)=O)c(O)c1 [Example 155, 2-hydroxy-4-(5-methyl-3-phenylisoxazol-4-yl)benzamide]
0.5 to 1 µM	Cc1onc(-c2cccnc2)c1-c1ccc(C(=O)NCCO)cc1 [Example 207]
